Data on 5 compounds can be found in article PMC4783263 (Molecular pharmaceutics, 2016).

Structures are written as SMILES. pIC50: −log10 of the molar value. ≈ marks a conversion by molar mass, not a printed value. Like-named read-outs stand apart in the source and are kept apart here.

The conditions of data set [1]: in vivo; cited from earlier work.
The conditions of data set [2]: mice, repeated oral dosing of 30–40 mg/kg/day for 4–90 days; cited from earlier work.
Data set [3] has as its system OVCAR-3 (human ovarian adenocarcinoma). The following applies: 150 mg/kg of ABZ 3 times a week for 4 weeks through IP; cited from earlier work.
For data set [4], the system named is SK-OV-3 cells. The following applies: read-out: IC50 on SK-OV-3 cells; ABZ formulated in ethanol; cited from earlier work.
Data set [5] has as its system SKHEP-1 (human liver adenocarcinoma) xenografts. The note with it: ABZ in sesame oil, xenografts on the flank of mice; cited from earlier work.
The test system of data set [6] is glioblastoma multiforme. The following applies: daily oral doses (50 and 150 mg/kg) of ABZ tablets mixed with 50% sesame oil; cited from earlier work.
The conditions of data set [7]: cited from earlier work.
Data set [8] concerns Salmonella typhimurium TA1535. Description: Ames test. The note with it: TA 1535, −S9, 1.5 µg/plate. In general terms: The Ames test uses bacterial strains that need an amino acid and regain growth without it when mutated back.
The subject of data set [9] is Salmonella typhimurium TA100. Description: Ames test. The note with it: TA 100, −S9, 1.5 µg/plate.
On the set-up of data set [10]: species or system Swiss Webster mice. The note with it: mouse, in vivo; for AUC / Cmax / tmax: 3.2 mg/kg.

Regarding `O=C(O)CCSC[C@H]1O[C@@H]2O[C@H]3[C@H](O)[C@@H](O)[C@@H](O[C@H]4[C@H](O)[C@@H](O)[C@@H](O[C@H]5[C@H](O)[C@@H](O)[C@@H](O[C@H]6[C@H](O)[C@@H](O)[C@@H](O[C@H]7[C@H](O)[C@@H](O)[C@@H](O[C@H]8[C@H](O)[C@@H](O)[C@@H](O[C@H]9[C@H](O)[C@@H](O)[C@@H](O[C@H]1[C@H](O)[C@H]2O)O[C@@H]9CSCCC(=O)O)O[C@@H]8CSCCC(=O)O)O[C@@H]7CSCCC(=O)O)O[C@@H]6CSCCC(=O)O)O[C@@H]5CSCCC(=O)O)O[C@@H]4CSCCC(=O)O)O[C@@H]3CSCCC(=O)O` [sugammadex], the “effect on QT interval (in words)” value in data set [1] is listed as “no relevant effects of the compound on QT interval”.
As to `CCCSc1ccc2nc(NC(=O)OC)[nH]c2c1` [ABZ, Albendazole], in [2], the “toxicity (in words)” value is given as “no significant signs of toxicity”. Further, the “malignant ascites (in words)” value in [3] is reported as “suppression of malignant ascites was observed”. In addition, the pIC50 (in general, the negative decadic logarithm of the IC50, by convention in mol/L) in data set [4] is 5.41. Besides, in data set [5], the “daily oral dose required to see an antitumor effect” value is listed as 300 mg/kg. The “mouse survival (in words)” value in [6] was “moderate improvements in mouse survival”.
With `O=C1N2CN3C(=O)N4CN5C(=O)N6CN7C(=O)N8CN9C(=O)N%10CN%11C(=O)N%12CN%13C(=O)N%14CN1C1C2N2CN%15C(=O)N(CN%16C(=O)N(CN%17C(=O)N(CN%18C(=O)N(CN%19C(=O)N(CN%20C(=O)N(CN1C2=O)C%14C%13%20)C%12C%11%19)C%10C9%18)C8C7%17)C6C5%16)C4C3%15` (stereo not shown) [CB[7]], the results for the “solubility in pure water” value in [7] (reported by Kim) and in [7] (reported by Nau) were 20 to 30 mM and 5 mM (≈ 5.81 mg/mL), respectively.
Consider `[N-]=[N+]=[N-].[Na+]` [Sodium azide, Sodium Azide, reference compound], for which the “revertant colonies, positive control” value in data set [8] is recorded as “Sodium azide 232 ± 6 colonies”; in data set [8] (listed as sodium azide), 232 colonies; in [9], “Sodium azide 167 ± 34 colonies”; in data set [9] (listed as sodium azide), 167 colonies.
For the compound `CCCS(=O)(=O)c1ccc2nc(NC(=O)OC)[nH]c2c1` [ABZSO2, Albendazole sulfone], in [10], the “Absolute Bioavailability” value came to 81%. In addition, in [10] (ip), the AUC (in general, the area under the concentration-time curve, a measure of exposure) was found to be 2380 ng·h/mL; the Cmax (usually the peak of the concentration-time curve) came to 410 ± 70 ng/mL; the tmax came to 2 h. In [10] (iv), the AUC was found to be 2940 ng·h/mL, the Cmax is 500 ± 90 ng/mL and the tmax was found to be 2 h.
